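Results reflect a 48-hour exposure of cells in 96-well plates to compound at five concentrations. The concentration for 50% growth inhibition is given as GI50. The concentration for full growth arrest is given as TGI.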
Experiments:
Experiment in all cases: NCI tumour cell line growth inhibition, 48 h
[1] = system: SR leukemia
[2] = system: RXF 393 renal
[3] = system: CAKI-1 renal
[4] = system: NCI-H226 lung
[5] = system: ACHN renal
[6] = system: SK-MEL-28 melanoma
[7] = system: A549 NSCLC
[8] = system: NCI-H460 lung
[9] = system: HL-60(TB) leukemia
[10] = system: M14 melanoma
[11] = system: OVCAR-3 ovarian
[12] = system: RPMI-8226 leukemia
[13] = system: CCRF-CEM leukemia
[14] = system: SF-295 CNS
[15] = system: 786-0 renal
[16] = system: SN12C renal
[17] = system: DU-145 prostate
[18] = system: UO-31 renal
[19] = system: EKVX NSCLC
[20] = system: SK-MEL-5 melanoma
[21] = system: BT-549 breast
[22] = system: MOLT-4 leukemia
[23] = system: IGROV1 ovarian
[24] = system: KM12 colon
[25] = system: COLO 205 colon
[26] = system: HCT-116 colon
[27] = system: OVCAR-8 ovarian
[28] = system: PC-3 prostate
[29] = system: HCT-15 colon
[30] = system: K-562 leukemia
[31] = system: TK-10 renal
[32] = system: SF-539 CNS
[33] = system: SK-MEL-2 melanoma
[34] = system: SF-268 CNS
[35] = system: MDA-MB-435
[36] = system: UACC-62 melanoma
[37] = system: UACC-257 melanoma
[38] = system: HT29 colon
[39] = system: SNB-75 CNS
[40] = system: NCI-H23 lung
[41] = system: HOP-62 NSCLC
[42] = system: MCF7 breast
[43] = system: SNB-19 CNS
[44] = system: SW-620 colon
[45] = system: LOX IMVI melanoma
[46] = system: NCI/ADR-RES ovarian
[47] = system: HS 578T breast
[48] = system: T-47D breast
[49] = system: U251 CNS
[50] = system: SK-OV-3 ovarian
[51] = system: OVCAR-4 ovarian
[52] = system: MDA-MB-231 breast
[53] = system: HOP-92 NSCLC
[54] = system: NCI-H522 lung
[55] = system: MALME-3M melanoma
[56] = system: A498 renal
[57] = system: HCC-2998 colon
[58] = system: OVCAR-5 ovarian

CS(=O)(=O)c1cccc(Nc2ncc3cc(-c4ccccc4Cl)ccc3n2)c1
GI50 [1]: 0.8 µM | TGI [1]: > 33.3 µM | GI50 [2]: 1.05 µM | TGI [2]: 6.24 µM | GI50 [3]: 0.859 µM | TGI [3]: 9.57 µM | GI50 [4]: 2.55 µM | TGI [4]: 21.5 µM | GI50 [5]: 1.01 µM | TGI [5]: > 33.3 µM | GI50 [6]: 1.77 µM | TGI [6]: > 33.3 µM | GI50 [7]: 1.78 µM | TGI [7]: > 33.3 µM | GI50 [8]: 1.22 µM | TGI [8]: 25.8 µM | GI50 [9]: 1.36 µM | TGI [9]: > 33.3 µM | GI50 [10]: 1.15 µM | TGI [10]: > 33.3 µM | GI50 [11]: 1.52 µM | TGI [11]: > 33.3 µM | GI50 [12]: 1.47 µM | TGI [12]: 21.4 µM | GI50 [13]: 1.47 µM | TGI [13]: > 33.3 µM | GI50 [14]: 1.6 µM | TGI [14]: > 33.3 µM | GI50 [15]: 1.38 µM | TGI [15]: > 33.3 µM | GI50 [16]: 1.12 µM | TGI [16]: > 33.3 µM | GI50 [17]: 1.42 µM | TGI [17]: > 33.3 µM | GI50 [18]: 0.803 µM | TGI [18]: 6.41 µM | GI50 [19]: 1.37 µM | TGI [19]: > 33.3 µM | GI50 [20]: 1.08 µM | TGI [20]: 4.04 µM | GI50 [21]: 2.11 µM | TGI [21]: 27.8 µM | GI50 [22]: 1.42 µM | TGI [22]: 14.6 µM | GI50 [23]: 1.1 µM | TGI [23]: 12.4 µM | GI50 [24]: 1.2 µM | TGI [24]: > 33.3 µM | GI50 [25]: 1.19 µM | TGI [25]: 3.13 µM | GI50 [26]: 1.01 µM | TGI [26]: 4.51 µM | GI50 [27]: 1.44 µM | TGI [27]: 32 µM | GI50 [28]: 1.79 µM | TGI [28]: > 33.3 µM | GI50 [29]: 0.821 µM | TGI [29]: > 33.3 µM | GI50 [30]: 0.165 µM | TGI [30]: > 33.3 µM | GI50 [31]: 1.9 µM | TGI [31]: 17.3 µM | GI50 [32]: 0.94 µM | TGI [32]: 25.5 µM | GI50 [33]: 0.92 µM | TGI [33]: 2.61 µM | GI50 [34]: 1.35 µM | TGI [34]: > 33.3 µM | GI50 [35]: 0.657 µM | TGI [35]: 1.9 µM | GI50 [36]: 1.17 µM | TGI [36]: 5.74 µM | GI50 [37]: 3.24 µM | TGI [37]: 19.3 µM | GI50 [38]: 1.01 µM | TGI [38]: 19.1 µM | GI50 [39]: 0.507 µM | TGI [39]: 2.3 µM | GI50 [40]: 1.98 µM | TGI [40]: > 33.3 µM | GI50 [41]: 1.3 µM | TGI [41]: > 33.3 µM | GI50 [42]: 1.37 µM | TGI [42]: > 33.3 µM | GI50 [43]: 2.46 µM | TGI [43]: > 33.3 µM | GI50 [44]: 1.78 µM | TGI [44]: > 33.3 µM | GI50 [45]: 1.06 µM | TGI [45]: 4.54 µM | GI50 [46]: 1.24 µM | TGI [46]: 17.7 µM | GI50 [47]: 1.23 µM | TGI [47]: 10.3 µM | GI50 [48]: 1.1 µM | TGI [48]: > 33.3 µM | GI50 [49]: 1.68 µM | TGI [49]: > 33.3 µM | GI50 [50]: 0.883 µM | TGI [50]: 2.99 µM | GI50 [51]: 1.51 µM | TGI [51]: > 33.3 µM | GI50 [52]: 1.37 µM | TGI [52]: 12.2 µM | GI50 [53]: 1.3 µM | TGI [53]: 7.56 µM | GI50 [54]: 0.773 µM | TGI [54]: 2.78 µM | GI50 [55]: 1.22 µM | TGI [55]: 9.84 µM | GI50 [56]: 1.75 µM | TGI [56]: 12.1 µM | GI50 [57]: 2.8 µM | TGI [57]: > 33.3 µM | GI50 [58]: 1.88 µM | TGI [58]: > 33.3 µM

— PubChem BioAssay (NCI)
